In brackets after ≈: the same amount, converted by molar mass. Counter-ions that a name gives are not always drawn. One block for each compound: values may come before it.
Columns and labels:
[1] = molecular target: T1, fibrinogen receptor (GpIIb/IIIa) on blood platelet (Homo sapiens, UniProt P05106+P08514); assay: Human Blood Platelet Fibrinogen Binding Test (125I labeled human fibrinogen, ADP 10 μM); details: human platelet 125I-fibrinogen binding
T1 construct: fibrinogen-free blood platelet suspension; endogenous in cells; host or cells: human blood platelets (from citrated venous blood of a healthy donor, gel-filtered)
T1 sequence (P08514 32-887 limits assumed): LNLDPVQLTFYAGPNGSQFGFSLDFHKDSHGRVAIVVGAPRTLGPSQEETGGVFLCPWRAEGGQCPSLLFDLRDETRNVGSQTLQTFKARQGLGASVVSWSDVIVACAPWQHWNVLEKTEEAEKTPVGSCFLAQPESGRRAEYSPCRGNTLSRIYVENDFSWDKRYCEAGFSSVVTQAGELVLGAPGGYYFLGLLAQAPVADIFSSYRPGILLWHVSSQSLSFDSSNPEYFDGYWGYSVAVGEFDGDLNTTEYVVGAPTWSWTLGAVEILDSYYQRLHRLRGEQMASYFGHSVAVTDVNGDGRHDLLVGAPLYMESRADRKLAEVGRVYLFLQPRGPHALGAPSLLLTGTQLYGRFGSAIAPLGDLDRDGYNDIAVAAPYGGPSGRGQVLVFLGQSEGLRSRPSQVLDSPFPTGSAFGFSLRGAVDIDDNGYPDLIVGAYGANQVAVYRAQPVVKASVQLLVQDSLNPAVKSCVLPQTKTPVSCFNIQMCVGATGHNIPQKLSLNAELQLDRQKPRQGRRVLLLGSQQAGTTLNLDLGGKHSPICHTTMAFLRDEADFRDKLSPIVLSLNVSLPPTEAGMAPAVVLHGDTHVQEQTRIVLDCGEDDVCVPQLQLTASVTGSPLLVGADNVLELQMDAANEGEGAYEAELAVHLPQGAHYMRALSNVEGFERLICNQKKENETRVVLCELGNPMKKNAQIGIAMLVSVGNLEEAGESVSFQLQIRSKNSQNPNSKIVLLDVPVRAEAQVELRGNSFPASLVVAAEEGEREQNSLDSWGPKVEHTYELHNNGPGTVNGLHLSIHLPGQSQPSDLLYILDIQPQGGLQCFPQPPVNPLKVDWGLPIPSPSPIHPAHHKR
T1 sequence (P08514 891-1039 partner limits assumed): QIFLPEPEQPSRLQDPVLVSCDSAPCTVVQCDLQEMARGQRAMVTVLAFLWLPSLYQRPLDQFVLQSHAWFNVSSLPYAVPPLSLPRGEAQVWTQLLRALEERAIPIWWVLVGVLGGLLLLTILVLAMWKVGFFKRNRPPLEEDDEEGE
T1 sequence (P05106 27-788): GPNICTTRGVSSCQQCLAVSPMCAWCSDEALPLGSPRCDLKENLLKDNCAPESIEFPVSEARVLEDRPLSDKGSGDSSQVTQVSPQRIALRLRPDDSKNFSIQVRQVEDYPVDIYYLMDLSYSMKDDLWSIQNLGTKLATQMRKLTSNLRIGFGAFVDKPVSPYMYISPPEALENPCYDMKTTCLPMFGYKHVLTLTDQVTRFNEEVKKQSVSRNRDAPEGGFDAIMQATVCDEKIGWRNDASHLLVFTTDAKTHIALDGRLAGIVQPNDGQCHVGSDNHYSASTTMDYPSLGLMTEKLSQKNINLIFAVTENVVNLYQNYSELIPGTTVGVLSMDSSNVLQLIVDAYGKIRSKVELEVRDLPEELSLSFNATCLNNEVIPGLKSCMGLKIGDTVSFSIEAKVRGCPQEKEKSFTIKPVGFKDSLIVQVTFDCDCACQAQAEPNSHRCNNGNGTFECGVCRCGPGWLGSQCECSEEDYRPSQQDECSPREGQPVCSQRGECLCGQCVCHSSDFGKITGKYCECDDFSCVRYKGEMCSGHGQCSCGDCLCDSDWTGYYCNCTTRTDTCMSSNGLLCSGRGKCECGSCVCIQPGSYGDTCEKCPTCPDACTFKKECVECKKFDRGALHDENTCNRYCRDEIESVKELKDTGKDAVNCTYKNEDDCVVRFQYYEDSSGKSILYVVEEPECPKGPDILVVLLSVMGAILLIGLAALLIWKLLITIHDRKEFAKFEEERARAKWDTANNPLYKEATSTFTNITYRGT
Procedure: Experiment 1 [Human Blood Platelet Fibrinogen Binding Test]
The test was carried out referring to the methods of G. A. Marguerie (J. Biol. Chem., vol. 254, pages. 5357-5363, 1979) and N. S. Nicholson (Thromb. Res., vol. 50, pages 567-578, 1991).
(§1) Citrated blood (the volume ratio of 3.13% sodium citrate solution and blood is 1:9) was collected from the cubital vein of a healthy human who had not received any drugs known to affect the function of blood platelet within 2 weeks prior to starting the test, and centrifuged at 120× g at room temperature for 15 minutes to give platelet rich plasma (PRP) as a supernatant.
To the above PRP was added one fifth volume of an ACD solution (citric acid/sodium citrate/dextrose), followed by centrifugation at 1200× g for 15 minutes. The precipitate was suspended in a Tyrode's solution ([…], 2 mM Mg^2+), followed by gel filtration using Sepharose 2B column to give a fibrinogen-free blood platelet suspension (1×10^9 /ml). The binding test was carried out by using the fibrinogen-free blood platelet suspension, the solutions of the compounds of Formula (I) in dimethyl sulfoxide which were each adjusted to the desired concentration by diluting with a physiological saline solution as test drugs, ADP (final concentration: 10 μM) and ^125 I labeled human fibrinogen, and then the binding inhibitory rate of the test drug was calculated.
N-(2-Carboxyethyl)-2-(4-amidinobenzoylimino)-3,4-dimethyl-3H-thiazoline-5-carboxamide hydrobromide (described in WO 94/02472; referred to as "Comparative drug" in the following experiments) was used as a comparative drug. The drug solution was prepared in the same manner as described above, and tested as described above.
The results are shown in Table 1 in which the compound numbers are the same as defined in the following examples and are also used in the following experiments.

[2] = tested on: blood platelet aggregation; assay: Human in vitro Blood Platelet Aggregation Inhibition Test (ADP-induced, PRP); format: cell-based; details: ADP 7 μM, 37° C., 50% inhibition of maximum aggregation
Procedure: Experiment 2 [Human in vitro Blood Platelet Aggregation Inhibition Test]
as §1, with “supernatant. The remaining precipitate was further centrifuged at 1500× g for 10 minutes to give platelet poor plasma (PPP) as a supernatant. The blood platelet counts of PRP were adjusted to 50~60×10^4 /μl by diluting with PPP.” for “supernatant.”
Blood platelet aggregation was monitored according to the method of Born G. V. R., [Nature, vol. 194, page 927 (1962)] using adenosine diphosphate (produced by Sigma Co.; hereinafter referred to as "ADP") as an aggregation-inducing substance. That is, a solution of the compound of Formula (I) as a test drug in dimethyl sulfoxide was adjusted to the desired concentration with a physiological saline solution. 25 μl of the solution was added to 250 μl of PRP and incubated at 37° C. for 3 minutes, and 25 μl of ADP (final concentration: 7 μM) was added thereto. […]

[3] = Solubility Test (0.1M phosphate buffer, pH 7); format: physicochemical; details: aqueous buffer, 0.1M phosphate buffer pH 7, 25° C.
Procedure: Experiment 3 [Solubility Test]
Solubility test was carried out referring to the method of S. Miyazaki et al. [Chem. Pharm. Bull., vol. 23, page 1197 (1975)].
9.511 g of disodium hydrogenphosphate weighed accurately was dissolved in 800 ml of water. The solution was adjusted to pH 7.0 by adding sodium dihydrogenphosphate, and the total volume of the solution was made exactly 1000 ml to give a 0.1M phosphate buffer (pH 7). To 1.0 ml of the buffer solution measured exactly was added an excess amount for the solubility limit of the test drug. The suspension was treated by supersonic waves for 5 minutes and stirred on a water bath at 25° C. for 24 hours. After removal of the insoluble substance by using a membrane filter (0.22 μm), the filtrate was appropriately diluted to give a test solution. Separately, 1 mg of the test drug weighed accurately was dissolved in the eluate to make exactly 100 ml to give a standard solution. The test solution and the standard solution were quantified by high performance liquid chromatography method under the following procedure conditions, and the solubility of the test drug was calculated.
Detection instrument: Ultraviolet spectrophotometer (Detection wave length: 246 nm)
(§2) Column: ODS column 4.6.phi.×150 mm (TSK Gel ODS 80TM)
Column temperature: A definite temperature in the vicinity of 50° C. […]

[4] = Stability Test (pH 7 phosphate buffer, 80° C.); format: physicochemical; details: 20 mg in 1000 ml; for remaining at 4 h: After 4 hours; for remaining at 4 h / remaining at 8 h / remaining at 24 h: read-out: Remaining rate of Test drug; for remaining at 8 h: After 8 hours; for remaining at 24 h: After 24 hours; for Remaining rate of Test drug: Immediately after
Procedure: Experiment 4 [Stability Test]
Stability test was carried out referring to the method of A. K. Amirjahed et al [J. Pharm. Sci., vol. 66, page 785 (1977)].
20 mg of Compound 8 obtained in the following example and 20 mg of Comparative drug, each weighed accurately, were each dissolved in 0.1N phosphate buffer (a buffer of a suitable amount of 0.1M potassium dihydrogenphosphate mixed with a suitable amount of 0.1M disodium hydrogenphosphate to adjust to pH 7) to make exactly 1000 ml to give standard solutions, respectively. The solution was dispensed into ampules, and they were stored at 80° C. for 4 hours, 8 hours and 24 hours to prepare test solutions.
20 μl of the test solution and 20 μl of the standard solution were each quantified by high performance liquid chromatography method under the following procedure conditions, and the peak areas of Compound 8 and Comparative drug at the storage times were determined, and the remaining rate was calculated by using the following formula, and the results are shown in Table 4.
Detection instrument: Ultraviolet spectrophotometer (Detection wave length: 247 nm)
as §2
Column temperature: A definite temperature in the vicinity of 50° C.
[Compound 8] 1 ml of phosphoric acid and 5 g of sodium dodecylsulfate (SDS) are added to 1000 ml of a mixture of water and acetonitrile (65:35).
[Comparative drug] 1 ml of phosphoric acid and 3 g of sodium dodecylsulfate (SDS) are added to 1000 ml of a mixture of water and acetonitrile (60:40).
Formula: Remaining rate (%)= [formula]

IC50 [1]: 8.6 nM
SMILES: Cc1c(C(=O)NCCC(=O)O)sc(=NC(=O)c2ccc(C(=N)NCCCCCC(=O)Nc3ccccc3)cc2)n1C1CC1 [Compound 51, N-(2-carboxyethyl)-2-{4-[N-(5-phenylaminocarbonylpentyl)amidino]benzoylimino}-3-cyclopropyl-4-methyl-3H-thiazoline-5-carboxamide]

IC50 [1]: 16.5 nM
SMILES: Cc1c(C(=O)NCCC(=O)O)sc(=NC(=O)c2ccc(C(=N)NCCC(=O)O)cc2)n1C [Compound 9, N-(2-carboxyethyl)-2-{4-[N-(2-carboxyethyl)amidino]-benzoylimino}-3,4-dimethyl-3H-thiazoline-5-carboxamide]

IC50 [1]: 4.7 nM
SMILES: Cc1c(C(=O)NCCC(=O)O)sc(=NC(=O)c2ccc(C(=N)NCCCC(=O)NC3CCCCC3)cc2)n1C [Compound 12, N-(2-carboxyethyl)-2-{4-[N-(3-cyclohexylaminocarbonylpropyl)amidino]benzoylimino}-3,4-dimethyl-3H-thiazoline-5-carboxamide]

SMILES: Cc1c(C(=O)NCCC(=O)O)sc(=NC(=O)c2ccc(C(=N)NCCCC(=O)O)cc2)n1C [Compound 8, N-(2-carboxyethyl)-2-{4-[N-(3-carboxypropyl)amidino]benzoylimino}-3,4-dimethyl-3H-thiazoline-5-carboxamide]
IC50 [1]: 25.6 nM
IC50 [2]: 39 nM
solubility at 24 h [3]: 20 mg/mL (≈ 42.1 mM)
remaining at 4 h [4]: 97.8%
remaining at 8 h [4]: 95.7%
remaining at 24 h [4]: 88.9%
Remaining rate of Test drug [4]: 100%

SMILES: Cc1c(C(=O)NCCC(=O)O)sc(=NC(=O)c2ccc(C(=N)N)cc2)n1C [Comparative drug, N-(2-Carboxyethyl)-2-(4-amidinobenzoylimino)-3,4-dimethyl-3H-thiazoline-5-carboxamide hydrobromide, reference compound]
IC50 [1]: 5 nM
IC50 [2]: 17 nM
solubility at 24 h [3]: 0.03 mg/mL
remaining at 4 h [4]: 82.2%
remaining at 8 h [4]: 68.4%
remaining at 24 h [4]: 32.3%
Remaining rate of Test drug [4]: 100%

IC50 [1]: 8.2 nM
SMILES: Cc1c(C(=O)NCCC(=O)O)sc(=NC(=O)c2ccc(C(=N)NCCCC(=O)OC3CCCCC3)cc2)n1C [Compound 11, N-(2-carboxyethyl)-2-{4-[N-(3-cyclohexyloxycarbonylpropyl)amidino]benzoylimino}-3,4-dimethyl-3H-thiazoline-5-carboxamide]

IC50 [1]: 11.1 nM
SMILES: Cc1c(C(=O)NCCC(=O)O)sc(=NC(=O)c2ccc(C(=N)NCCCC(=O)OC3CCCCC3)cc2)n1C1CCC1 [Compound 56, N-(2-carboxyethyl)-2-{4-[N-(3-cyclohexyloxycarbonylpropyl)amidino]benzoylimino}-3-cyclobutyl-4-methyl-3H-thiazoline-5-carboxamide]

IC50 [1]: 7.2 nM
SMILES: Cc1c(C(=O)NCCC(=O)O)sc(=NC(=O)c2ccc(C(=N)NCCCC(=O)OC3CCCCC3)cc2)n1C1CC1 [Compound 49, N-(2-carboxyethyl)-2-{4-[N-(3-cyclohexyloxycarbonylpropyl)amidino]benzoylimino}-3-cyclopropyl-4-methyl-3H-thiazoline-5-carboxamide]

IC50 [1]: 12.6 nM
SMILES: Cc1c(C(=O)NCCC(=O)O)sc(=NC(=O)c2ccc(C(=N)NCCCC(=O)OC3CCCCC3)cc2)n1C(C)C [Compound 17, N-(2-carboxyethyl)-2-{4-[N-(3-cyclohexyloxycarbonylpropyl)amidino]benzoylimino}-3-isopropyl-4-methyl-3H-thiazoline-5-carboxamide]

From patent publication US5672712A, “Thiazoline derivatives” (Taisho Pharmaceutical Co., Ltd., priority 1994, dated 1997)
